Patent publication US20180312473A1, “PHENAZINE DERIVATIVES AS ANTIMICROBIAL AGENTS” (priority 2015, published 2018)
≈ marks a conversion by molar mass, not a printed value. Where “and” joins values, the source holds several entries; their conditions need not be identical. Equal entries are not always repeated. Where two headings read alike, the source gives them in different places.

Assays:
[1] = system: MRSA-2 (methicillin-resistant Staphylococcus aureus clinical isolate); test: MIC assay (broth microdilution, CLSI); format: cell-based; details: Staphylococcus aureus, MRSA, read-out: MIC, MRSA-2
[2] = system: Staphylococcus epidermidis (ATCC 35984), MRSE; test: MIC assay (broth microdilution, CLSI); format: cell-based; details: Staphylococcus epidermidis
[3] = system: MRSE (S. epidermidis ATCC 35984) planktonic cells and biofilms; test: Calgary Biofilm Device (CBD) assay, MBC/MBEC; format: cell-based, Staphylococcus epidermidis; details: for MBC: Staphylococcus epidermidis
[4] = system: VRE (E. faecium ATCC 700221) planktonic cells and biofilms; test: Calgary Biofilm Device (CBD) assay, MBC/MBEC; format: cell-based, Enterococcus faecium; details: for MBC: Enterococcus
A. baumannii 19606 = test: MIC assay (broth microdilution, CLSI); format: cell-based, Acinetobacter baumannii; details: Acinetobacter baumannii, 19606; read-out: A. baumannii 19606 MIC
P. aeruginosa (PAO1) = test: MIC assay (broth microdilution, CLSI); format: cell-based; details: Pseudomonas aeruginosa, PAO1; read-out: PAO1 MIC
K. pneumoniae 13883 = test: MIC assay (broth microdilution, CLSI); format: cell-based, Klebsiella pneumoniae; details: Klebsiella pneumoniae, 13883; read-out: K. pneumoniae 13883 MIC
E. coli UAEC-1 = test: MIC assay (broth microdilution, CLSI); format: cell-based; details: Escherichia coli, UAEC1; read-out: E. coli UAEC-1 MIC
E. faecium 700221 (VRE) = test: MIC assay with Tiron or metal(II) cation co-treatment; format: cell-based, Enterococcus faecium
[5] = Aqueous solubility under MIC assay conditions; format: physicochemical; details: MIC assay media, 37 °C, aqueous buffer; read-out: [aq. soluble]
[6] = system: methicillin-resistant S. aureus (MRSA) strains; test: MIC assay, values summarised over MRSA strains; format: cell-based, Staphylococcus aureus
[7] = system: S. aureus clinical isolate SA 138; test: MIC assay (broth microdilution, CLSI); details: Staphylococcus aureus, read-out: MIC, SA 138
[8] = system: MRSA BAA-1707 planktonic cells and biofilms; test: Calgary Biofilm Device (CBD) assay, MBC/MBEC; details: Staphylococcus aureus, read-out: MRSA BAA-1707 MBC
[9] = system: Staphylococcus epidermidis (ATCC 12228); test: MIC assay (broth microdilution, CLSI); format: cell-based; details: Staphylococcus epidermidis, ATCC12228; Table 7; b lowest concentration tested; read-out: MIC, S. epidermidis 12228
MRSE 35984 biofilms = test: Live/Dead staining (fluorescence microscopy) of MRSE 35984 biofilms; format: cell-based, Staphylococcus epidermidis; details: 24 h
Procedure: In addition to Calgary Biofilm Device experiments, we evaluated select HPs against staphylococcal biofilms in live/dead staining experiments. HP 14 was added to 24 hour old MRSE biofilms at 0.1, 1, and 10 μM and allowed to incubate at 37° C. for an additional 24 hours. Following this, images of the treated and untreated S. epidermidis biofilm were taken using fluorescence microscopy (FIG. 11).
A mid-log culture of MRSE […] was diluted 1:1,000-fold and 500 μL was transferred to each compartment of a 4 compartment CELLview dish (Greiner Bio-One 627871). The dish was then incubated for 24 hours at 37° C. After this time, the cultures were removed and the plate was washed with 0.9% saline. The dish was then treated with the compounds in fresh media at various concentrations. DMSO was used as our negative control in this assay. The dish was incubated with the compound for 24 hours at 37° C. After this time, the cultures were removed and the dish was washed with 0.9% saline for 2 minutes. Saline was then removed and 500 μL of the stain (Live/Dead BacLight Viability Kit, Invitrogen) were added for 15 minutes and left in the dark. After this time, the stain was removed and the dish was washed twice with 0.9% saline. Then the dish was fixed with 500 μL 4% paraformaldehyde in PBS for 30 minutes. Images of remaining MRSE biofilms were then taken with a fluorescence microscope. All data were analyzed using IMAGE J software.

[10] = system: MRSA-2 persister cells (stationary cultures); details: 12.5 μM; reduction of viable cells over 24 h; listed as 214
MRSA BAA-44 = test: MIC assay (broth microdilution, CLSI); details: Staphylococcus aureus, read-out: MIC, MRSA BAA-44
[11] = system: MRSA-2 persister cells (stationary cultures); test: microbe, parasite or virus in culture; details: Staphylococcus aureus, 24 h, read-out: reduction of viable stationary MRSA-2 cells
[12] = system: S. aureus clinical isolate SA 129; test: MIC assay (broth microdilution, CLSI); details: Staphylococcus aureus, read-out: MIC, SA 129
[13] = system: S. aureus clinical isolate SA 147; test: MIC assay (broth microdilution, CLSI); details: Staphylococcus aureus, read-out: MIC, SA 147
[14] = system: S. aureus clinical isolate SA 156; test: MIC assay (broth microdilution, CLSI); details: Staphylococcus aureus, read-out: MIC, SA 156
[15] = system: MRSA biofilms (MRSA-2, BAA-1707, BAA-44); test: Calgary Biofilm Device assay, values summarised over MRSA strains
[16] = Table 2B, a midpoint of 2-fold range, * partial growth inhibition at highest concentration
[17] = Table 7, a midpoint of 2-fold range, b lowest concentration tested
[18] = Table 2B, read-out: MIC, Staphylococcus epidermidis (ATCC 35984)
[19] = Table 7, read-out: MIC, MRSE 35984
[20] = Table 8, read-out: MRSE 35984 MBC

Compound: Oc1ccc(I)c2nc3cc(Cl)c(Cl)cc3nc12 [Compound 12, 7,8-Dichloro-4-iodo-1-hydroxyphenazine]
- MIC ([1]; Table 2A): 0.39 µM (≈ 0.152 µg/mL)
- MIC [1, 16]: 0.39 µM (≈ 0.152 µg/mL)
- MIC [1, 17]: 0.39 µM (≈ 0.152 µg/mL)
- MIC ([2]; Table 2A, read-out: MIC, Staphylococcus epidermidis (ATCC 35984)): 0.78 µM (≈ 0.305 µg/mL)
- MIC [2, 18]: 0.78 µM (≈ 0.305 µg/mL)
- MIC [2, 19]: 0.78 µM (≈ 0.305 µg/mL)
- MBC ([3]; Table 5, read-out: MRSE MBC): 9.38 µM (≈ 3.67 µg/mL)
- MBC [3, 20]: 9.38 µM (≈ 3.67 µg/mL)
- MRSE MBEC ([3]; Table 5): 75 µM
- MBC ([4]; read-out: VRE 700221 MBC): 3.13 µM (≈ 1.22 µg/mL)
- MIC (A. baumannii 19606): > 100 µM
- MIC (P. aeruginosa (PAO1)): > 100 µM
- MIC (K. pneumoniae 13883): > 100 µM
- MIC (E. coli UAEC-1): > 100 µM
- MIC (E. faecium 700221 (VRE)): 3.13 µM
- MIC (E. faecium 700221 (VRE); Enterococcus faecium, VRE): 3.13 µM
- MIC (E. faecium 700221 (VRE); Enterococcus faecium, VRE, read-out: MIC with Tiron): 3.13 µM
- MIC (E. faecium 700221 (VRE); Enterococcus faecium, VRE, E. faecium 700221, 200 μM CuSO4, read-out: MIC with Cu^2+): 1.56 µM
- MIC (E. faecium 700221 (VRE); read-out: MIC with Tiron): 3.13 µM
- solubility at 16 h [5]: 200 µM (≈ 78.2 µg/mL)
- MIC ([6]; Staphylococcus aureus, MRSA, range over the MRSA strains/isolates tested, read-out: MIC against MRSA strains): 0.15 to 0.59 µM (≈ 0.0586 to 0.231 µg/mL)
- MIC [7]: 0.59 µM (≈ 0.231 µg/mL)
- MBC [8]: 75 µM (≈ 29.3 µg/mL)

Compound: Oc1c(Br)cc(I)c2nc3cc(Cl)c(Cl)cc3nc12 [Compound 14, 2-bromo-7,8-dichloro-4-iodo-1-hydroxyphenazine]
- MIC [1, 16]: 3.13 µM (≈ 1.47 µg/mL)
- MIC [1, 17]: 3.13 µM (≈ 1.47 µg/mL)
- MIC [9]: 0.1 µM (≈ 0.047 µg/mL)
- MIC [2, 18]: 3.13 µM (≈ 1.47 µg/mL)
- MIC [2, 19]: 3.13 µM (≈ 1.47 µg/mL)
- MBC ([3]; Table 5, read-out: MRSE MBC): 1.56 µM (≈ 0.733 µg/mL)
- MBC [3, 20]: 1.56 µM (≈ 0.733 µg/mL)
- MRSE MBEC ([3]; Table 5, listed as 214): 1.56 μM and 1.56/1.56 μM
- MBC ([4]; Table 5, c lowest concentration tested, read-out: VRE MBC): 0.2 µM (≈ 0.094 µg/mL)
- MBC ([4]; Table 8, c lowest concentration tested, read-out: VRE 700221 MBC): 0.2 µM (≈ 0.094 µg/mL)
- VRE MBEC ([4]; Table 5, c lowest concentration tested, listed as 214): 0.20 μM and 0.20^c/0.20^c μM
- MIC (A. baumannii 19606): > 100 µM
- solubility at 16 h [5]: 200 µM (≈ 94 µg/mL)
- effect on established MRSE biofilm (Live/Dead staining) (MRSE 35984 biofilms; 0.1 μM): a significant amount of MRSE biofilm cells were eradicated, however, not cleared from within the biofilm
- effect on established MRSE biofilm (Live/Dead staining) (MRSE 35984 biofilms; 1 μM): a significant amount of the biofilm cells
- effect on established MRSE biofilm (Live/Dead staining) (MRSE 35984 biofilms; 10 μM): removed all detectable MRSE biofilm cells from the glass surface
- growth inhibition activity against at least one MRSA strain [6]: sub-micromolar
- MRSA-2 stationary killing [10]: >3 log
- MIC (MRSA BAA-44): 3.13 µM (≈ 1.47 µg/mL)
- inhibition at 12.5 µM [11]: > 99.9%
- MIC [12]: 1.56 µM (≈ 0.733 µg/mL)
- MIC [7]: 0.59 µM (≈ 0.277 µg/mL)
- MIC [13]: 0.3 µM (≈ 0.141 µg/mL)
- MIC [14]: 0.3 µM (≈ 0.141 µg/mL)
- MBEC against MRSA biofilms [15]: < 10 µM and 6.25 to 9.38 µM
